Assay results: the NIST ThermoML archive (doi:10.1016/j.jct.2005.01.009)

Test: mn = molality of the nth substance listed, in mol/kg
Details: 101 kPa, Liquid; for speed of sound: Linear variable-path acoustic interferometer

CCCCn1cc[n+](C)c1.[Br-] [1-butyl-3-methylimidazolium bromide] + CCO
Details | mass density, 298.15 K [kg/m3] | mass density, 303.15 K [kg/m3] | mass density, 308.15 K [kg/m3] | mass density, 313.15 K [kg/m3] | mass density, 318.15 K [kg/m3] | speed of sound, 298.15 K [m/s] | speed of sound, 303.15 K [m/s] | speed of sound, 308.15 K [m/s] | speed of sound, 313.15 K [m/s] | speed of sound, 318.15 K [m/s]
m1 = 0.0271 | 787.221 | 782.917 | 778.581 | 774.206 | 769.798 | 1145.2 | 1128.3 | 1111.6 | 1094.9 | 1078.3
m1 = 0.0587 | 789.649 | 785.356 | 781.029 | 776.665 | 772.267 | 1147.3 | 1130.5 | 1113.8 | 1097.1 | 1080.6
m1 = 0.0846 | 791.567 | 787.288 | 782.969 | 778.613 | 774.213 | 1148.6 | 1131.9 | 1115.3 | 1098.6 | 1082.1
m1 = 0.1257 | 794.595 | 790.319 | 786.01 | 781.663 | 777.288 | 1150.8 | 1134 | 1117.4 | 1101 | 1084.5
m1 = 0.1587 | 796.91 | 792.647 | 788.343 | 784.006 | 779.628 | 1152.7 | 1136.1 | 1119.4 | 1103 | 1086.5
m1 = 0.2261 | 801.67 | 797.404 | 793.117 | 788.795 | 784.413 | 1155.8 | 1139.7 | 1123.2 | 1106.8 | 1090.5
m1 = 0.3162 | 807.896 | 803.664 | 799.393 | 795.091 | 790.753 | 1160.7 | 1144.3 | 1128 | 1111.7 | 1095.4

CCCCn1cc[n+](C)c1.[Br-] [1-butyl-3-methylimidazolium bromide] + CO
Details | mass density, 298.15 K [kg/m3] | mass density, 303.15 K [kg/m3] | mass density, 308.15 K [kg/m3] | mass density, 313.15 K [kg/m3] | mass density, 318.15 K [kg/m3] | speed of sound, 298.15 K [m/s] | speed of sound, 303.15 K [m/s] | speed of sound, 308.15 K [m/s] | speed of sound, 313.15 K [m/s] | speed of sound, 318.15 K [m/s]
m1 = 0.0473 | 790.393 | 785.688 | 780.958 | 776.204 | 771.426 | – | 1090.5 | 1074.3 | 1058.2 | 1042.3
m1 = 0.0767 | 792.789 | 788.091 | 783.371 | 778.627 | 773.86 | – | 1092.6 | 1076.5 | 1060.5 | 1044.7
m1 = 0.1497 | 798.175 | 793.495 | 788.794 | 784.073 | 779.323 | 1114.1 | 1098 | 1081.9 | 1066 | 1050.2
m1 = 0.2612 | 806.303 | 801.654 | 796.988 | 792.294 | 787.582 | 1121.7 | 1105.7 | 1089.7 | 1073.9 | 1058.2
m1 = 0.3434 | 812.207 | 807.572 | 802.921 | 798.249 | 793.553 | 1127.1 | 1111.1 | 1095.2 | 1079.4 | 1063.8
m1 = 0.4912 | 822.389 | 817.794 | 813.177 | 808.542 | 803.883 | 1136.4 | 1120.6 | 1104.8 | 1089.2 | 1073.8
m1 = 0.7273 | 837.955 | 833.402 | 828.837 | 824.253 | 819.66 | 1151 | 1135.4 | 1119.9 | 1104.5 | 1089.2
m1 = 0.9756 | 852.578 | 848.25 | 843.727 | 839.188 | 834.634 | 1164.1 | 1148.7 | 1133.4 | 1118.2 | 1103.1
m1 = 1.405 | 876.422 | 871.97 | 867.512 | 863.046 | 858.563 | 1186.2 | 1171 | 1156 | 1141 | 1126.3
m1 = 2.446 | 924.879 | 920.559 | 916.245 | 911.924 | 907.596 | 1233.3 | 1218.8 | 1204.4 | 1190.1 | 1175.9
m1 = 3.896 | 976.589 | 972.412 | 968.238 | 964.059 | 959.889 | 1287.4 | 1273.5 | 1259.7 | 1246 | 1232.5

CCCCn1cc[n+](C)c1.[Br-] [1-butyl-3-methylimidazolium bromide] + O
Details | mass density, 298.15 K [kg/m3] | mass density, 303.15 K [kg/m3] | mass density, 308.15 K [kg/m3] | mass density, 313.15 K [kg/m3] | mass density, 318.15 K [kg/m3] | speed of sound, 298.15 K [m/s] | speed of sound, 303.15 K [m/s] | speed of sound, 308.15 K [m/s] | speed of sound, 313.15 K [m/s] | speed of sound, 318.15 K [m/s]
m1 = 0.0692 | 1000.44 | 999.001 | 997.35 | 995.472 | 993.421 | 1504 | 1515.9 | 1526 | 1534.6 | 1541.9
m1 = 0.1376 | 1003.7 | 1002.2 | 1000.49 | 998.581 | 996.491 | 1511.3 | 1522.7 | 1532.3 | 1540.4 | 1546.9
m1 = 0.2697 | 1009.85 | 1008.28 | 1006.54 | 1004.6 | 1002.47 | 1523.1 | 1533.3 | 1541.9 | 1549.1 | 1555
m1 = 0.6117 | 1024.93 | 1023.15 | 1021.17 | 1019.01 | 1016.68 | 1552.2 | 1561.7 | 1568.7 | 1573.8 | 1577
m1 = 1.28 | 1050.92 | 1048.78 | 1046.56 | 1044.14 | 1041.59 | 1600.3 | 1603.5 | 1605.6 | 1606.7 | 1606.9
m1 = 2.133 | 1078.26 | 1075.78 | 1073.14 | 1070.42 | 1067.58 | 1645.9 | 1644.9 | 1644.1 | 1640.6 | 1637.5
m1 = 3.115 | 1103.8 | 1100.98 | 1098.05 | 1095.04 | 1091.93 | 1682.7 | 1678.3 | 1673.3 | 1667.9 | 1662
m1 = 5.187 | 1143.52 | 1140.26 | 1136.94 | 1133.57 | 1130.13 | 1724.2 | 1716 | 1707.4 | 1698.6 | 1689.6
m1 = 7.792 | 1176.05 | 1172.57 | 1169.05 | 1165.49 | 1161.9 | 1741.2 | 1731.4 | 1721.3 | 1711 | 1700.5
